Results: patent US5075440A, “Novel pyrido[2,3-f](1,4)thiazepines and pyrido[3,2-b](1,5)benzothiazepines” (Ortho Pharmaceutical Corporation, priority 1990, dated 1991)

Key:
[1] = tested on: aorta tissue; assay: Inhibition of calcium dependent smooth muscle contraction, aorta (P#176 Aorta); set-up: species or system dog; settings: Canis lupus familiaris, 50 mM KCl contraction, read-out: P#176 Aorta % INHB/μM
Description: (§1) The test for inhibition of calcium dependent smooth muscle contraction is determined according to the following procedure:
(§2) The trachea and the aorta from dogs sacrificed by excess KCl injection are stored overnight at 4° C. in oxygenated Krebs-Henseleit buffer. Tracheal rings, one cartilage segment wide (5-10 mm), are cut starting from the bronchial end. Rings of aorta tissue of the same width are also prepared. After cutting the cartilage, the trachealis muscle tissue and the aorta tissue are suspended in oxygenated Krebs-Henseleit buffer at 37° C. in a 25 ml tissue bath. After a 60-minute equilibration period, the tissues are challenged with 10 μM carbachol. After 5 minutes, the tissues are rinsed and allowed to rest 50 minutes. The tissues are then challenged with 50 mM KCl and, after 30 minutes, the contractions are quantitated. The tissues are then rinsed and reequilibrated for 50 minutes. Test compounds are then added for 10 minutes, and the tissue is rechallenged with 50 mM KCl. After 30 minutes, the contraction is recorded and used to determine the % inhibition of control.
(§3) The percent inhibition of smooth muscle contraction is calculated from response data before and after drug treatment. [formula]

[2] = biological target: T1, Calcium Channel (3H-nitrendipine binding, heart membranes) (Oryctolagus cuniculus, UniProt P15381); assay: Inhibition of 3H-nitrendipine binding (P#166 Nit. Binding); set-up: species or system rabbit; settings: for inhibition at 1 µM: @ 1.0 μM test compound; for IC50: rabbit heart membranes, 3H-nitrendipine 0.05-0.50 nM
T1 construct: the heart is immediately removed, cleaned and chopped into small pieces; The tissue is homogenized; from tissue; host or cells: heart membranes of female New Zealand white rabbits (42,000×g pellet)
Description: The assay for inhibition of nitrendipine binding is performed using the following procedure:
Female, New Zealand white rabbits (1-2 kg) are sacrificed by cervical dislocation, and the heart is immediately removed, cleaned and chopped into small pieces. The tissue is homogenized in 5×volume of 0.05M Hepes buffer, pH 7.4. The homogenate is centrifuged at 4000×g for 10 minutes, and the supernatant is recentrifuged at 42,000×g for 90 minutes. The resulting membrane pellet is resuspended (0.7 ml/g weight) in 0.05M Hepes, pH 7.4 and stored at […] until used. Each tube of the binding assay contains ^3 H-nitrendipine (0.05-0.50 nM), buffer, membranes (0.10 ml), and test compound in a total volume of 1.0 ml. After 90 minutes at 4° C., the bound nitrendipine is separated from the unbound by filtration on Whatman GF/C filters. After rinsing, the filters are dried and counted in a liquid scintillation counter.
Non-specific binding of ^3 H-nitrendipine (that amount bound in the presence of excess unlabelled nitrendipine) is subtracted from the total bound to obtain specifically bound radiolabeled nitrendipine. The amount of specifically bound nitrendipine in the presence of a test compound is compared to that amount bound in the absence of a compound. A percent displacement (or inhibition) can then be obtained.

[3] = tested on: trachealis muscle tissue; assay: Inhibition of calcium dependent smooth muscle contraction, trachea (P#176 Trach); set-up: species or system dog; settings: Canis lupus familiaris, 50 mM KCl contraction, read-out: P#176 Trach % INHB/μM
Description: as §1, §2, §3

T1 sequence (P15381 whole entry, other chains not shown): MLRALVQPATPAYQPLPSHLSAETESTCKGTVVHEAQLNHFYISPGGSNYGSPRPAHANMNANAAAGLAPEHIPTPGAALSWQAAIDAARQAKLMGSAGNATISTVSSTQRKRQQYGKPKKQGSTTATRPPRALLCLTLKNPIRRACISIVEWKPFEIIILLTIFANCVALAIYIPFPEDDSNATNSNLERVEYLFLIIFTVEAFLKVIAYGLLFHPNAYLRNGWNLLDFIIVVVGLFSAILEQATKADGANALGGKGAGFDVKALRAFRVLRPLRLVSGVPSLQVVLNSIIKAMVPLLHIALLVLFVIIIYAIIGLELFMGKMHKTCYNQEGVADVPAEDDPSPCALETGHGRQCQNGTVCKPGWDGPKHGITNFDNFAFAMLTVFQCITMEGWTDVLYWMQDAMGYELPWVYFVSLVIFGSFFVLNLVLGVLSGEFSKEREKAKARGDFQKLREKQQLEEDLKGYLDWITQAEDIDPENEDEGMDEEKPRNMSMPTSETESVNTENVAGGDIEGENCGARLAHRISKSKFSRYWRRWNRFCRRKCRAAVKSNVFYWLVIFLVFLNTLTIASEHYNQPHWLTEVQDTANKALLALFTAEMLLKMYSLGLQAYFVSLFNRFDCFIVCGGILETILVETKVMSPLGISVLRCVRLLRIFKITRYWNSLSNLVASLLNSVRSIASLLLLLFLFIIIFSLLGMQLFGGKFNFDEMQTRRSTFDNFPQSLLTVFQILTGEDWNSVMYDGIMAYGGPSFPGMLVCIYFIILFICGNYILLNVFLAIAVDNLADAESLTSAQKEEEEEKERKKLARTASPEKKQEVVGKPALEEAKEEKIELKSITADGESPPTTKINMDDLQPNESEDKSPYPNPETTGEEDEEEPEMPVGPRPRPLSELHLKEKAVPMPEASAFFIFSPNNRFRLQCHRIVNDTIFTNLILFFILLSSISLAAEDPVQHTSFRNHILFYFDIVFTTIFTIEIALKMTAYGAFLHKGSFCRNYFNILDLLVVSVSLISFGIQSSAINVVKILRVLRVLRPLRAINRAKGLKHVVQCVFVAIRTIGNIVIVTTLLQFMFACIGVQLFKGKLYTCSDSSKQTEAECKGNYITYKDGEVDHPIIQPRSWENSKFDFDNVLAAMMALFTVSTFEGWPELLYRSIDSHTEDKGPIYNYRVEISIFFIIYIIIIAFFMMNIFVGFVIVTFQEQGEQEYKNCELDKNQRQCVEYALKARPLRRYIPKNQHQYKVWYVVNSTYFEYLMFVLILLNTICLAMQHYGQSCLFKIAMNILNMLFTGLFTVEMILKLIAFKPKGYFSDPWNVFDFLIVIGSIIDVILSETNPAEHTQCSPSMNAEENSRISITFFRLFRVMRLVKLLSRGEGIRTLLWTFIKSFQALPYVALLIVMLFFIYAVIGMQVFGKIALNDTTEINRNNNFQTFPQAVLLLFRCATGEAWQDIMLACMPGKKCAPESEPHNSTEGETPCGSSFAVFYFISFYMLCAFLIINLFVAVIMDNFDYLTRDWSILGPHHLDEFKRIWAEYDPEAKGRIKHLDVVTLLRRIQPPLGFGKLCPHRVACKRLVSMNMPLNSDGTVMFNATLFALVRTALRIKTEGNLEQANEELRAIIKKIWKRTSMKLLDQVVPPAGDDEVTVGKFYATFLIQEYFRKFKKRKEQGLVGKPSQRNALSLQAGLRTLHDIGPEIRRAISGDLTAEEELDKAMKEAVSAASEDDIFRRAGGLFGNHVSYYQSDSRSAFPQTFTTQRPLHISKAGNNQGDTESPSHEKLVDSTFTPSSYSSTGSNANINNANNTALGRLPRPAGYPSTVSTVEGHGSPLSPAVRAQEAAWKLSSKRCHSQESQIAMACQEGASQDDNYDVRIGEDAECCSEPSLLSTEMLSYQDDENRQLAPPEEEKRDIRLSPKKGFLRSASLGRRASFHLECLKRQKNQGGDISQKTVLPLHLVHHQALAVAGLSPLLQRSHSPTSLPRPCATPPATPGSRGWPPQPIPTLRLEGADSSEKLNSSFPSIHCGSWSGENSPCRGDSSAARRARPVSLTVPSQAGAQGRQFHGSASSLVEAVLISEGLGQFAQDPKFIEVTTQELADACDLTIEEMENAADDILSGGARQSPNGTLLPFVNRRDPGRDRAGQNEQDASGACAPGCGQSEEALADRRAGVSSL
T1 sequence (P13806 27-960 partner limits assumed, other chains not shown): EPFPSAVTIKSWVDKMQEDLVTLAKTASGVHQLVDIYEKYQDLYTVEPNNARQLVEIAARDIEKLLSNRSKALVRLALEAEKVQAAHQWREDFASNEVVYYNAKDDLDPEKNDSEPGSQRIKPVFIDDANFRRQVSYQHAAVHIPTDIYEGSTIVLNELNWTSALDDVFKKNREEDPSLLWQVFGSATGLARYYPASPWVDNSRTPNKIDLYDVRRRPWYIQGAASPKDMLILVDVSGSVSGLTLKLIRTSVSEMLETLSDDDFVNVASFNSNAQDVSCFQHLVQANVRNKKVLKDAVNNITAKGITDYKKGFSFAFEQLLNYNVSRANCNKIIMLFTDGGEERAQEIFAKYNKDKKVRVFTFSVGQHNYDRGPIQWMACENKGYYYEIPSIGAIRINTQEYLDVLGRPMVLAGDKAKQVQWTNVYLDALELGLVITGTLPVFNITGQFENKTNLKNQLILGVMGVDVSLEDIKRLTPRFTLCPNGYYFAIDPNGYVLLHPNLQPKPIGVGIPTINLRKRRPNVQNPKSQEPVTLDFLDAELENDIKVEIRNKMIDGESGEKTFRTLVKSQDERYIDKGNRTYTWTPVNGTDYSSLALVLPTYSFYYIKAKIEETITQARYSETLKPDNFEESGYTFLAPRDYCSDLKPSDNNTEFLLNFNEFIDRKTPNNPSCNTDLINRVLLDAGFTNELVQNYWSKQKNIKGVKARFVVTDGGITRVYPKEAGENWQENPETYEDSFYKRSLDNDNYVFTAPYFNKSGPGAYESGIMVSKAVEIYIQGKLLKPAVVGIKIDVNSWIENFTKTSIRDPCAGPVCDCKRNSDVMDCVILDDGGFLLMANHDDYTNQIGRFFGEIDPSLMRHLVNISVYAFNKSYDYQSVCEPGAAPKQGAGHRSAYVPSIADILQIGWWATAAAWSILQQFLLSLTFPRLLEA
T1 sequence (P13806 961-1106 partner limits assumed, other chains not shown): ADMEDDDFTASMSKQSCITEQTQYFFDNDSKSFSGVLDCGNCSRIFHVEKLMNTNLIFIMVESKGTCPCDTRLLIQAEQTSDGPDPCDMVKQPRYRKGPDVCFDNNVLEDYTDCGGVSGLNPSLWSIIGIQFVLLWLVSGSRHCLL

SMILES	inhibition at 1 µM [2] [%]	IC50 [2] [nM]	inhibition at 0.1 µM [1] [%]	inhibition at 1 µM [1] [%]	inhibition at 2 µM [3] [%]	inhibition at 0.01 µM [1] [%]	inhibition at 0.1 µM [3] [%]	inhibition at 0.3 µM [3] [%]	inhibition at 0.03 µM [3] [%]	inhibition at 0.01 µM ([3]; 0.01 μM) [%]	inhibition at 1 µM ([3]; 1.0 μM) [%]	inhibition at 0.3 µM ([1]; 0.3 μM) [%]	inhibition at 0.03 µM ([1]; 0.03 μM) [%]
CCOC(=O)C1=C(C)NC2=C(C1c1cccc(Cl)c1Cl)S(=O)(=O)CCN(C(C)C)C2 (stereo not shown) [2,3-dichloro / iPr / ethyl]	–	72	83	95	86	38	37	61	–	–	–	–	–
CCOC(=O)C1=C(C)NC2=C(C1c1cccc([N+](=O)[O-])c1)S(=O)(=O)CCNC2 (stereo not shown) [3-nitro / H / ethyl]	–	240	88	100	93	–	–	–	58	–	–	–	–
CCOC(=O)C1=C(C)NC2=C(C1c1c(F)c(F)c(F)c(F)c1F)S(=O)(=O)CCN(C)C2 (stereo not shown) [pentafluoro / Me / ethyl, Ethyl 4,7-dimethyl-1,1-dioxo-2,3,4,5,6,9-hexahydro-9-(2,3,4,5,6-pentafluorophenyl)-pyrido[2,3-f][1,4]-thiazepine-8-carboxylate]	–	53	–	97	–	50	73	–	–	35	95	–	–
CCOC(=O)C1=C(C)NC2=C(C1c1cccc(Cl)c1Cl)S(=O)(=O)CCN(C(=O)OC(C)(C)C)C2 (stereo not shown) [2,3-dichloro / BOC / ethyl, Ethyl 9-(2,3-Dichlorophenyl)-4-(t-butyloxycarbonyl) -1,1-dioxo-2,3,4,5,6,9-hexahydro-7-methylpyrido[2,3-f][1,4]thiazepine-8-carboxylate]	32	–	–	18	0	–	–	–	–	–	–	4	–
CCCN1CCS(=O)(=O)C2=C(C1)NC(C)=C(C(=O)OCC)C2c1cccc(Cl)c1Cl (stereo not shown) [2,3-dichloro / Pr / ethyl]	–	145	88	100	68	53	44	53	30	–	–	–	–
CC1=C(C(=O)OCCN(C)Cc2ccccc2)C(c2cccc(Cl)c2Cl)C2=C(CN(C)CCS2(=O)=O)N1 (stereo not shown) [2,3-dichloro / Me / NBzNMe-ethyl]	–	150	–	–	88	–	54	71	28	–	–	–	–

Now from value to molecule, other results behind:

inhibition at 1 µM [2] [%]	IC50 [2] [nM]	SMILES	inhibition at 0.1 µM [1] [%]	inhibition at 1 µM [1] [%]	inhibition at 2 µM [3] [%]	inhibition at 0.01 µM [1] [%]	inhibition at 0.1 µM [3] [%]	inhibition at 0.3 µM [3] [%]	inhibition at 0.03 µM [3] [%]	inhibition at 0.01 µM ([3]; 0.01 μM) [%]	inhibition at 1 µM ([3]; 1.0 μM) [%]	inhibition at 0.3 µM ([1]; 0.3 μM) [%]	inhibition at 0.03 µM ([1]; 0.03 μM) [%]
24	–	CCOC(=O)C1=C(C)NC2=C(C1c1c(F)c(F)c(F)c(F)c1F)S(=O)(=O)CCN(C(=O)OC(C)(C)C)C2 (stereo not shown) [pentafluoro / BOC / ethyl]	0	37	7	–	–	–	–	–	–	–	–
–	660	CCOC(=O)C1=C(C)NC2=C(C1c1cccc3nonc13)S(=O)(=O)CCNC2 (stereo not shown) [2,3-(2,1,3 oxadiazolyl) / H / ethyl]	22	83	68	–	–	22	–	–	–	–	–
–	380	CC1=C(C(=O)OCCN(C)Cc2ccccc2)C(c2cccc(Cl)c2Cl)C2=C(CNCCS2(=O)=O)N1 (stereo not shown) [2,3-dichloro / H / NBzNMe-ethyl, 2-(N-benzyl-N-methylamino)ethyl 9-(2,3-dichlorophenyl)-1,1-dioxo-2,3,4,5,6,9-hexahydro-7-methylpyrido[2,3-f][1,4]thiazepine-8-carboxylate]	48	93	86	–	23	62	–	–	–	–	20
–	360	CCOC(=O)C1=C(C)NC2=C(C1c1ccccc1C(F)(F)F)S(=O)(=O)CCNC2 (stereo not shown) [2-CF3 / H / ethyl]	68	83	73	37	38	35	–	–	–	–	–
